Experimental findings from patent US20040146498A1, “Pharmaceutical combinations” (priority 2001, published 2004) are described below.

The subject of this test is femoral artery thrombosis. Briefly: Canine femoral artery thrombosis model. To be noted: Compound A administered in combination with aspirin (pre-treatment) versus either agent alone; dog; FIG. 1; not statistically significant. The test is classed as in vivo. The source says: Canine Femoral Artery Thrombosis Model—Compound A and Aspirin Compound A as defined above was used in combination with aspirin in a dog model of femoral artery thrombosis to determine whether combination of a P2T-receptor antagonist and pre-treatment with aspirin would have an improved profile when compared to the effect of either agent used alone.

The structures appear in SMILES notation.

For `CCCSc1nc(N[C@@H]2C[C@H]2c2ccc(F)c(F)c2)c2nnn([C@@H]3C[C@H](OCCO)[C@@H](O)[C@H]3O)c2n1` [Compound A], the “anti-thrombotic potency (dose (ID50) required to produce 50% inhibition of thrombosis)” value was “trend for an increased anti-thrombotic potency”.
